Measured values from patent US7265129B2, “Anti-infective biaryl compounds” (priority 2002, dated 2007).

What was measured:
[1] = system: S. pneumoniae ATCC 49619; assay: MIC, NCCLS broth microdilution, S. pneumoniae; type: cell-based, Streptococcus pneumoniae
How it was run: (§1)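 Broth microdilution per NCCLS M7-A4/M11-A4/M27-T guidelines; minimal inhibitory concentration read as endpoint. Candida tested by Manual of Clinical Microbiology method.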

[2] = system: E. faecium ATCC 51559; assay: MIC, E. faecium VRE; type: cell-based, Enterococcus faccium; settings: Table C; E. faecium ATCC 51559, vancomycin resistant strain (VRE)
Procedure: (§2) Compounds according to this invention were screened for their in vitro activities against selected species of bacteria and fungi. The minimal inhibition concentration (MIC) of these compounds was determined using the National Committee for Clinical Laboratory Standards (NCCLS) broth microdilution assay in microtiter plates, as set forth in: (1) the guidelines of the National Committee for Clinical Laboratory Standards (NCCLS) Document M7-A4 (NCCLS, 1997); (2) the guidelines of the National Committee for Clinical Laboratory Standards (NCCLS) Document M11-A4 (NCCLS, 1997); and (3) the guidelines and reference method of the National Committee for Clinical Laboratory Standards (NCCLS) Document M27-T (NCCLS, 1995). For antifungal assays, the method recommended in Murray, P R., 1995 Manual of Clinical Microbiology (ASM Press, Washington, D.C.), was employed.
(§3) Additionally, some compounds were screened against Enterococcus faccium (ATCC 51559, a vancomycin resistant strain (VRE)), Staphylococcus epidermidis (ATCC 12228), Streptococcus pneumoniae (ATCC 51422, a penicillin resistant strain (PRSP)), and/or Streptococcus pyogenes (ATCC 49399).

[3] = system: E. faecalis ATCC 29212; assay: MIC, NCCLS broth microdilution, E. faecalis; type: cell-based, Enterococcus faecalis
How it was run: as §1

[4] = system: S. epidermidis ATCC 12228; assay: MIC, S. epidermidis; type: cell-based, Staphylococcus epidermidis; settings: Table C
Procedure: as §2, §3

[5] = system: S. aureus ATCC 33591; assay: MIC, NCCLS broth microdilution, S. aureus ATCC 33591; type: cell-based, Staphylococcus aureus
How it was run: as §1

[6] = system: S. aureus ATCC 13709; assay: MIC, NCCLS broth microdilution, S. aureus MSSA; type: cell-based, Staphylococcus aureus; settings: S. aureus ATCC 13709, methicillin sensitive strain (MSSA)
How it was run: as §1

[7] = system: S. aureus ATCC 27660; assay: MIC, NCCLS broth microdilution, S. aureus MRSA; type: cell-based, Staphylococcus aureus; settings: S. aureus ATCC 27660, methicillin resistant strain (MRSA)
How it was run: as §1

[8] = MIC, Table C (organism not given); type: cell-based
Procedure: as §2, §3

[9] = system: C. albicans ATCC 38247; assay: MIC, antifungal assay, C. albicans; type: cell-based, Candida albicans
How it was run: as §1

[10] = system: B. cereus ATCC 11778; assay: MIC, NCCLS broth microdilution, B. cereus; type: cell-based, Bacillus cereus
How it was run: as §1

Structure (SMILES) | Minimum Inhibitory Concentration (MIC), organism G [1] | Minimum Inhibitory Concentration (MIC), organism A [2] | Minimum Inhibitory Concentration (MIC), organism C [3] | Minimum Inhibitory Concentration (MIC), organism B [4] | Minimum Inhibitory Concentration (MIC), organism F [5] | Minimum Inhibitory Concentration (MIC), organism D [6] | Minimum Inhibitory Concentration (MIC), organism E [7] | Minimum Inhibitory Concentration (MIC), organism E [8] | Minimum Inhibitory Concentration (MIC), organism B [9] | Minimum Inhibitory Concentration (MIC), organism A [10]
CN(C)CCCn1cc(NC(=O)c2cc3ccccc3cn2)cc1C(=O)Nc1cc(-c2nc3ccccc3[nH]2)n(C)c1 [Compound A-1] | +++ (MIC ≦ 4 μg/mL) | +++ (MIC ≦ 4 pg/mL) | +++ (MIC ≦ 4 μg/mL) | +++ (MIC ≦ 4 pg/mL) | +++ (MIC ≦ 4 μg/mL) | +++ (MIC ≦ 4 μg/mL) | +++ (MIC ≦ 4 μg/mL) | +++ (MIC ≦ 4 pg/mL) | +++ (MIC ≦ 4 μg/mL) | +++ (MIC ≦ 4 μg/mL)
Cc1ccc2nc(-c3cc(NC(=O)c4cc(NC(=O)c5cc6ccccc6cn5)cn4C)cn3C)[nH]c2c1 [Compound A-2] | +++ (MIC ≦ 4 μg/mL) | +++ (MIC ≦ 4 pg/mL) | +++ (MIC ≦ 4 μg/mL) | +++ (MIC ≦ 4 pg/mL) | +++ (MIC ≦ 4 μg/mL) | +++ (MIC ≦ 4 μg/mL) | +++ (MIC ≦ 4 μg/mL) | +++ (MIC ≦ 4 pg/mL) | >32 µg/mL | +++ (MIC ≦ 4 μg/mL)
COc1ccc2nc(-c3cc(NC(=O)c4cc(NC(=O)c5cc6ccccc6cn5)cn4C)cn3C)[nH]c2c1 [Compound A-4] | +++ (MIC ≦ 4 μg/mL) | +++ (MIC ≦ 4 pg/mL) | +++ (MIC ≦ 4 μg/mL) | +++ (MIC ≦ 4 pg/mL) | +++ (MIC ≦ 4 μg/mL) | +++ (MIC ≦ 4 μg/mL) | +++ (MIC ≦ 4 μg/mL) | +++ (MIC ≦ 4 pg/mL) | >32 µg/mL | +++ (MIC ≦ 4 μg/mL)
Cn1cc(NC(=O)c2cc3ccccc3cn2)cc1C(=O)Nc1cc(-c2nc3ccc(NC(=O)C(F)(F)F)cc3[nH]2)n(C)c1 [Compound A-5] | +++ (MIC ≦ 4 μg/mL) | +++ (MIC ≦ 4 pg/mL) | +++ (MIC ≦ 4 μg/mL) | +++ (MIC ≦ 4 pg/mL) | +++ (MIC ≦ 4 μg/mL) | +++ (MIC ≦ 4 μg/mL) | +++ (MIC ≦ 4 μg/mL) | +++ (MIC ≦ 4 pg/mL) | >32 µg/mL | +++ (MIC ≦ 4 μg/mL)
Cn1cc(NC(=O)c2cc(NC(=O)c3sccc3Cl)cn2CCC[n+]2ccccc2)cc1-c1nc2ncccc2[nH]1 [Compound A-62] | + (12 ≦ MIC ≦ 32 μg/mL) | – | >32 µg/mL | – | + (12 ≦ MIC ≦ 32 μg/mL) | >32 µg/mL | + (12 ≦ MIC ≦ 32 μg/mL) | – | >32 µg/mL | >32 µg/mL
CN(C)CCCn1cc(NC(=O)c2sccc2Cl)cc1C(=O)Nc1cc(-c2nc3ncncc3[nH]2)n(C)c1 [Compound A-63] | +++ (MIC ≦ 4 μg/mL) | – | + (12 ≦ MIC ≦ 32 μg/mL) | – | + (12 ≦ MIC ≦ 32 μg/mL) | + (12 ≦ MIC ≦ 32 μg/mL) | + (12 ≦ MIC ≦ 32 μg/mL) | – | >32 µg/mL | >32 µg/mL
